According to US20070020183A1, “Perfluoroalkyl-containing complexes, process for their production as well as their use” (priority 2005, published 2007):

Columns and labels:
[1] = tested on: inflammatory muscle lesions and necrotic areas; experiment: MRT visualization of inflammatory lesions and necrotic areas in rats; assay type: in vivo; conditions: i.v. 50 μmol of Gd/kg, T1-weighted turbo-spin-echo 1.5 T
Protocol: By way of example, the pictures of FIG. 3 show MR images of inflammatory muscle lesions as well as necrotic areas at different points in time after intravenous administration of 50 μmol of Gd/kg of body weight of gadolinium complex XIV (title substance of Example 4g) in rats. The inflammation/necrosis was induced by intravenous administration of Rose Bengal (20 mg/kg; 24 hours before the administration of contrast medium) and subsequent 20-minute irradiation with a xenon lamp.

[2] = in vivo; cited from earlier work

Compound	MR signal in the central necrosis ([1]; 24 hours p.i.)	MR signal in inflammatorily altered tissue ([1]; up to 60 minutes p.i.)	LD50 [2]
CC(C(=O)NCC(=O)NCCCC[C@H](NC(=O)CO[C@H]1O[C@H](CO)[C@@H](O)[C@H](O)[C@@H]1O)C(=O)NCCCC(F)(F)C(F)(F)C(F)(F)C(F)(F)C(F)(F)C(F)(F)C(F)(C(F)(F)F)C(F)(F)F)N1CCN(CC(=O)[O-])CCN(CC(=O)[O-])CCN(CC(=O)[O-])CC1.[Gd+3] (stereo partly drawn) [Gadolinium complex XIV, Gadolinium complex of 6-N-[1,4,7-tris-(carboxylatomethyl)-1,4,7,10-tetraazacyclododecane-10-N-(pentanoyl-3-aza-4-oxo-5-methyl-5-yl)]-2-N-(1-O-α-d-carbonylmethylmannopyranose)-L-lysine-[(1H,1H,2H,2H-perfluoro-9-methyldecyl)-methyl]-amide]	delayed signal rise	strong signal rise	
Mn-TPPS			approximately 0.5 mmol/kg
